From patent US20250134905A1, “USE OF SMALL-MOLECULE COMPOUND HOMOHARRINGTONINE IN MANUFACTURING DRUG FOR TREATING ACQUIRED IMMUNE DEFICIENCY SYNDROME” (Hangzhou City University, priority 2022, published 2025)

Tested on: HIV-1
Assay: microbe, parasite or virus in culture
Details: Human immunodeficiency virus 1, HEK293, read-out: EC50 in inhibiting the production of HIV-1

COC(=O)C[C@](O)(CCCC(C)(C)O)C(=O)O[C@@H]1C(OC)=C[C@]23CCCN2CCc2cc4c(cc2[C@H]13)OCO4 [homoharringtonine]
EC50: 8.57 nM
